Test results: PubChem BioAssay (NCI)
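Values below derive from 48-hour exposures of cells grown in 96-well plates, with endpoints linearly interpolated between the two concentrations bracketing the appropriate inhibition level. GI50 = concentration required for 50% inhibition of growth. TGI: total growth inhibition.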

Assays:
Test in all cases: NCI-60 cell line screen, 48 h
RXF 393 renal = tested on: RXF 393 renal
KM12 colon = tested on: KM12 colon
NCI-H460 lung = tested on: NCI-H460 lung
NCI-H23 lung = tested on: NCI-H23 lung
OVCAR-8 ovarian = tested on: OVCAR-8 ovarian
OVCAR-3 ovarian = tested on: OVCAR-3 ovarian
SK-MEL-2 melanoma = tested on: SK-MEL-2 melanoma
MDA-MB-435 = tested on: MDA-MB-435
PC-3 prostate = tested on: PC-3 prostate
MCF7 breast = tested on: MCF7 breast

Structure (SMILES) | TGI (RXF 393 renal) [µM] | TGI (KM12 colon) [µM] | TGI (NCI-H460 lung) [µM] | TGI (NCI-H23 lung) [µM] | TGI (OVCAR-8 ovarian) [µM] | TGI (OVCAR-3 ovarian) [µM] | TGI (SK-MEL-2 melanoma) [µM] | TGI (MDA-MB-435) [µM] | TGI (PC-3 prostate) [µM] | TGI (MCF7 breast) [µM] | GI50 (RXF 393 renal) [nM] | GI50 (KM12 colon) [nM] | GI50 (NCI-H460 lung) [nM] | GI50 (MDA-MB-435) [nM] | GI50 (PC-3 prostate) [nM] | GI50 (MCF7 breast) [nM] | GI50 (NCI-H23 lung) [nM] | GI50 (OVCAR-3 ovarian) [nM] | GI50 (OVCAR-8 ovarian) [µM] | GI50 (SK-MEL-2 melanoma) [µM]
COC(=O)c1cc2c(=O)n(C)c3ccccc3n2c1C(=O)OC | > 100 | > 100 | > 100 | > 100 | > 100 | > 100 | > 100 | – | – | – | – | – | – | – | – | – | – | – | – | –
Oc1ccc(C=Nc2ccccc2O)cc1 | > 100 | > 100 | > 100 | > 100 | > 100 | > 100 | 57.3 | 33 | > 100 | 90.8 | – | – | – | – | – | – | – | – | – | –
C=C[C@@H](C)[C@]1(C(=O)OC)CCCC12OCCO2 | > 100 | > 100 | > 100 | – | > 100 | > 100 | > 100 | – | – | – | – | – | – | – | – | – | – | – | – | –
Cc1cnc2ccc(C)c([N+](=O)[O-])c2c1NCCCN(C)C | – | > 100 | > 100 | > 100 | > 100 | > 100 | > 100 | – | – | – | – | – | – | – | – | – | – | – | – | –
Cc1c(C)n(CCCN2CCN(C)CC2)c2ccc(Oc3cccc(C(=O)N4CCN(CCc5ccc(F)cc5)CC4)c3)cc12 | 3.06 | 3.64 | 3.45 | 3.49 | – | 3.39 | – | 3.33 | 2.61 | 3.22 | 1590 | 1930 | 1860 | 1780 | 1060 | 1590 | 1850 | 1820 | – | –
N#C/C(=C\c1cc(O)cc(O)c1)C(N)=O | > 100 | > 100 | > 100 | > 100 | > 100 | > 100 | > 100 | – | – | – | – | – | – | – | – | – | – | – | – | –
C[C@@H](Oc1cc(-n2cnc3ccc(OC4CCN(C)CC4)cc32)sc1C(N)=O)c1ccccc1Cl | 3.53 | 2.97 | 3.19 | 5.18 | 3.36 | 3.2 | – | 0.0159 | 6.02 | 3.92 | 11.2 | 8.86 | 12.6 | 5.49 | 15.3 | 8.84 | 18.3 | 8.58 | 0.0197 | –
Cc1cc2nc(NCCN)n(Cc3ccc(F)c(Cl)c3)c2cc1C | – | 18.6 | 10.4 | 29.2 | 33.1 | 27 | 34 | 14 | 22.4 | 27.1 | – | 5280 | 3200 | 3680 | 10000 | 11700 | 14500 | 12800 | 17 | 19.1
CN(CCS(=O)(=O)N1C(=O)C2CCCN2C(=O)[C@@H]1Cc1ccccc1)C(=O)OCc1ccccc1 (stereo partly specified) | > 100 | > 100 | > 100 | > 100 | > 100 | > 100 | – | – | – | – | – | – | – | – | – | – | – | – | – | –
COc1ccc(Cc2c3cc(O)c(=O)cc-3ccn2C)cc1 | 73.7 | > 100 | > 100 | > 100 | > 100 | > 100 | > 100 | – | – | – | – | – | – | – | – | – | – | – | – | –
